Measured values published in patent US20100184751A1, “HETEROCYCLIC COMPOUNDS FOR THE TREATMENT OF TUBERCULOSIS” (priority 2007, published 2010).
Where a name gives a salt, the structure may show the parent alone. Read-outs that look alike come from different tables or passages of the source.

Experiments:
[1] = General antimicrobial activity assay (whole-cell broth microdilution MIC, CLSI M7-A7); assay type: cell-based
[2] = test system: Mycobacterium tuberculosis H37Rv; assay: Mycobacterium tuberculosis H37Rv inhibition assay (resazurin MIC); assay type: cell-based; details: ATCC 25618 / H37Rv, read-out: MIC value
[3] = 144 h, H37Rv strain (ATCC25618), Middlebrook 7H9, 37° C., six days, resazurin fluorescence after 48 hours
[4] = H37Rv strain (ATCC25618), Middlebrook 7H9, 37° C., six days, resazurin fluorescence after 48 hours

| Compound | MIC [1] [µg/mL] | MIC [2, 3] [µg/mL] | further results |
| --- | --- | --- | --- |
| COc1cnc2ccc(=O)n3c2c1[C@](O)(CN1CCC(NCc2cc4c(cn2)OCCO4)CC1)C3 [Example 65] | ≤ 8 |  |  |
| O=c1[nH]c2ccccc2nc1CNC1CCN(C[C@]2(O)Cn3c(=O)ccc4ncc(F)c2c43)CC1 [Example 38] | < 4 |  |  |
| O=c1c(Cl)cc2ncc(F)c3c2n1CC3(O)CN1CCC(NCc2cc3c(cn2)OCCO3)CC1 (racemic) [Example 24, (4R/S)-8-Chloro-4-({4-[(2,3-dihydro[1,4]dioxino[2,3-c]pyridin-7-ylmethyl)amino]-1-piperidinyl}methyl)-3-fluoro-4-hydroxy-4,5-dihydro-7H-pyrrolo[3,2,1-de]-1,5-naphthyridin-7-one Dihydrochloride] | < 4 |  |  |
| COc1cnc2ccc(=O)n3c2c1[C@](O)(CN1CCC(NCc2cc4c(nn2)OCCO4)CC1)C3 [Example 66] |  |  | MIC ([1]; read-out: MIC values): > 16 µg/mL |
| O=c1[nH]c(CNC2CCN(C[C@]3(O)Cn4c(=O)ccc5ncc(F)c3c54)CC2)nc2ccccc12 [Example 39] | < 4 |  |  |
| O=c1c(F)cc2ncc(F)c3c2n1C[C@@]3(O)CN1CCC(NCc2cc3c(cn2)OCCO3)CC1 [Example 20A, (4S)-4-({4-[(2,3-Dihydro[1,4]dioxino[2,3-c]pyridin-7-ylmethyl)amino]-1-piperidinyl}methyl)-3,8-difluoro-4-hydroxy-4,5-dihydro-7H-pyrrolo[3,2,1-de]-1,5-naphthyridin-7-one (E1 enantiomer series)] |  | ≤ 4 |  |
| O=c1ccc2ncc(F)c3c2n1CC3(F)CN1CCC(NCc2cc3c(cn2)OCCO3)CC1 (stereo not drawn) [Example 26B, 4-({4-[(2,3-Dihydro[1,4]dioxino[2,3-c]pyridin-7-ylmethyl)amino]-1-piperidinyl}methyl)-3,4-difluoro-4,5-dihydro-7H-pyrrolo[3,2,1-de]-1,5-naphthyridin-7-one Dihydrochloride(E1 Enantiomer)] |  |  | MIC ([2]; 144 h): ≤ 4 µg/mL |
| O=C1CSc2ccc(CNC3CCN(C[C@]4(O)Cn5c(=O)ccc6ncc(F)c4c65)CC3)nc2N1 [Example 6, (4S)-3-Fluoro-4-hydroxy-4-[(4-{[(3-oxo-3,4-dihydro-2H-pyrido[3,2-b][1,4]thiazin-6-yl)methyl]amino}-1-piperidinyl)methyl]-4,5-dihydro-7H-pyrrolo[3,2,1-de]-1,5-naphthyridin-7-one (E1 Enantiomer Series) Dihydrochloride] |  | ≤ 4 | MIC [2, 4]: ≤ 1.7 µg/mL |
| CC(C)n1nnc2cc(CNC3CCN(C[C@]4(O)Cn5c(=O)ccc6ncc(F)c4c65)CC3)ccc21 [Example 47] | ≤ 8 |  |  |
| O=c1ccc2ncc(F)c3c2n1C[C@@]3(O)CN1CCC(NCc2cc3c(cn2)SCCO3)CC1 [Example 23A, Dihydrochloride] |  | ≤ 4 | MIC [2, 4]: ≤ 1.7 µg/mL |
| O=c1ccc2ncc(F)c3c2n1C[C@@]3(O)CN1CCC(NCc2ccc3nnsc3c2)CC1 [Example 53, (4S)-4-({4-[(1,2,3-benzothiadiazol-6-ylmethyl)amino]-1-piperidinyl}methyl)-3-fluoro-4-hydroxy-4,5-dihydro-7H-pyrrolo[3,2,1-de]-1,5-naphthyridin-7-one] |  | ≤ 4 | MIC [2, 4]: ≤ 1.7 µg/mL |
